Measurements published in US7915291B2, “Hepatitis C virus inhibitors” (Bristol-Myers Squibb Company, priority 2002, dated 2011).
Read-outs that look alike come from different tables or passages of the source.

Key:
[1] = target: T1, human liver cathepsin B (Homo sapiens, UniProt P07858); test: Specificity assay, cathepsin B; format: biochemical; conditions: 2 hr pre-incubation
T1 construct: purchased Sigma; host or cells: human liver (as named)
Protocol: The specificities of compounds of the present invention were determined against a variety of serine proteases: human leukocyte elastase (HLE), porcine pancreatic elastase (PPE) and human pancreatic chymotrypsin and one cysteine protease: human liver cathepsin B. In all cases a 96-well plate format protocol using colorimetric p -nitroaniline (pNA) substrate specific for each enzyme was used as described previously (Patent WO 00/09543) with some modifications to the serine protease assays. All enzymes were purchased from Sigma while the substrates were from Bachem.
Each assay included a 2 hr enzyme-inhibitor pre-incubation at RT followed by addition of substrate and hydrolysis to ˜30% conversion as measured on a Spectramax Pro microplate reader. Compound concentrations varied from 100 to 0.4 μM depending on their potency. […]
The percentage of inhibition was calculated using the formula: [1−((UVinh−UVblank)/(UVctl−UVblank))]×100 […]

[2] = target: HCV NS3/4A protease complex, BMS strain (UniProt P27958, C1454S/C1711G, species not given/STRAIN_BMS); test: Recombinant HCV NS3/4A protease complex FRET peptide assay (BMS strain); format: biochemical, HCV genotype 1a
Procedure, shortened: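 Percent inhibition taken from the linear-range fluorescence slope relative to uninhibited control, read kinetically for about 15 min at 25° C. Enzyme (2-3 nM, BMS NS3/4A complex, lysine-tailed, Ni-NTA purified) met compound for 1 min before 2 μM FRET depsipeptide substrate started cleavage.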

`C=C[C@@H]1C[C@]1(NC(=O)[C@@H]1C[C@@H](Oc2nc(C3CC3)cc3ccccc23)CN1C(=O)[C@@H](NC(=O)OC(C)(C)C)C(C)(C)C)C(=O)NS(=O)(=O)C1CC1` [Compound 34] showed an IC50 [1] of over 200000 nM, an IC50 ([2]; BMS strain, read-out: IC50 against the NS3/4A BMS strain in the enzyme assay) of 23 nM and an IC50 ([2]; NS3/4A BMS strain, read-out: IC50 range) of under 100 nM.
